Experimental data as given in BindingDB's records for doi:10.1016/0960-894X(95)00174-R (1995).

Tests used:
[1] = molecular target: Platelet-activating factor receptor (Oryctolagus cuniculus); experiment: In vitro inhibitory activity against PAF-induced aggregation of rabbit platelets
[2] = molecular target: Platelet-activating factor receptor (Oryctolagus cuniculus); experiment: In vitro ability to displace [3H]PAF from PAF receptor in rabbit platelet membranes

| Compound | IC50 [1] [nM] | Ki [2] [nM] |
| --- | --- | --- |
| CCCCCCCCCCCCCCCCCCNC(=O)OC[C@H]1C[C@H](COC(=O)N(Cc2cccc[n+]2CC)C(=O)c2ccc(OC)cc2)S1 [1-Ethyl-2-{[(4-methoxy-benzoyl)-(4-octadecylcarbamoyloxymethyl-thietan-2-ylmethoxycarbonyl)-amino]-methyl}-pyridinium; chloride] | 84 | 34 |
| CCCCCCCCCCCCCCCCCCNC(=O)OC[C@H]1C[C@H](COC(=O)N(Cc2cccc[n+]2CC)C(C)=O)N1C(C)=O [2-{[Acetyl-((2R,4R)-1-acetyl-4-octadecylcarbamoyloxymethyl-azetidin-2-ylmethoxycarbonyl)-amino]-methyl}-1-ethyl-pyridinium; chloride] | – | 35 |
| CCCCCCCCCCCCCCCCOC[C@H]1C[C@H](COC(=O)N(Cc2cccc[n+]2CC)C(C)=O)S1 [2-{[Acetyl-((2R,4R)-4-hexadecyloxymethyl-thietan-2-ylmethoxycarbonyl)-amino]-methyl}-1-ethyl-pyridinium; chloride] | 52 | 20 |
| CCCCCCCCCCCCCCCCOC[C@H]1C[C@@H](COC(=O)N(Cc2cccc[n+]2CC)C(C)=O)O1 [2-{[Acetyl-((2S,4R)-4-hexadecyloxymethyl-oxetan-2-ylmethoxycarbonyl)-amino]-methyl}-1-ethyl-pyridinium; iodide] | 95 | 21 |
| CCCCCCCCCCCCCCCCOC[C@@H]1C[C@@H](COC(=O)N(Cc2cccc[n+]2CC)C(C)=O)O1 [2-{[Acetyl-((2S,4S)-4-hexadecyloxymethyl-oxetan-2-ylmethoxycarbonyl)-amino]-methyl}-1-ethyl-pyridinium; iodide] | 57 | 15 |

Next, values leading:

| IC50 [1] [nM] | Ki [2] [nM] | Compound |
| --- | --- | --- |
| – | 4.3 | CCCCCCCCCCCCCCCCCCNC(=O)OC[C@H]1C[C@H](COC(=O)N(Cc2cccc[n+]2CC)C(C)=O)C1 [2-{[Acetyl-(3-octadecylcarbamoyloxymethyl-cyclobutylmethoxycarbonyl)-amino]-methyl}-1-ethyl-pyridinium; iodide] |
| 57 | 4.3 | CCCCCCCCCCCCCCCCCCNC(=O)OC[C@H]1C[C@H](COC(=O)N(Cc2cccc[n+]2CC)C(C)=O)S1 [2-{[Acetyl-((2R,4R)-4-octadecylcarbamoyloxymethyl-thietan-2-ylmethoxycarbonyl)-amino]-methyl}-1-ethyl-pyridinium; chloride] |
| 61 | 9.8 | CCCCCCCCCCCCCCCCCCNC(=O)OC[C@H]1C[C@@H](COC(=O)N(Cc2cccc[n+]2CC)C(C)=O)S1 [2-{[Acetyl-((2S,4R)-4-octadecylcarbamoyloxymethyl-thietan-2-ylmethoxycarbonyl)-amino]-methyl}-1-ethyl-pyridinium; chloride] |
| – | 9.8 | CCCCCCCCCCCCCCCCNC(=O)OC[C@@H]1C[C@@H](COC(=O)N(Cc2cccc[n+]2CC)C(C)=O)S1 [2-{[Acetyl-((2S,4S)-4-hexadecylcarbamoyloxymethyl-thietan-2-ylmethoxycarbonyl)-amino]-methyl}-1-ethyl-pyridinium; chloride] |
